Data set [1] in a line: Aqueous solubility of the compound. Type of data set: physicochemical.
In the next data set the target is Albumin (Bos taurus, UniProt P02769). The data set is described as follows: Binding affinity to bovine serum albumin.

Each structure is given as a SMILES string. Some results are limits rather than exact numbers.

Chain of Albumin (P02769 whole entry): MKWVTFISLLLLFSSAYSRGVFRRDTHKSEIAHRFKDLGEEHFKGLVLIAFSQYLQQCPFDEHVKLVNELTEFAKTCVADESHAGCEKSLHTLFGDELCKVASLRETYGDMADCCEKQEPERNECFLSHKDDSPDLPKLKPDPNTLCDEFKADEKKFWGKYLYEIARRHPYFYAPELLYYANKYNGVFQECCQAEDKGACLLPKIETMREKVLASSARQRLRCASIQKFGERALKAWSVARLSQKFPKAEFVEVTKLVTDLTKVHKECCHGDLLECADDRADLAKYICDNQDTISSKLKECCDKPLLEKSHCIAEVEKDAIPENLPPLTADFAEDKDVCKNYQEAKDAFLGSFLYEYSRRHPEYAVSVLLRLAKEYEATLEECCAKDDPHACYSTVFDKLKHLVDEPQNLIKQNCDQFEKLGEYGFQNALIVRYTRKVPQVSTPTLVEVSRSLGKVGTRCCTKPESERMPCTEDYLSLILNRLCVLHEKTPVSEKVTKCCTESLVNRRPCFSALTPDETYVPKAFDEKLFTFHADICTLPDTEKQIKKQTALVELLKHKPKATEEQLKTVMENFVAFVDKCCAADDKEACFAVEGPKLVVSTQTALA

The term solubility denotes the concentration that dissolves in the medium under given conditions. `CCN(CC)c1ccc2nc3c4cc(OCCCC(=O)O)ccc4c(=O)c(Br)c-3oc2c1` showed a solubility in data set [1] of more than 100 µM. In data set [1], `CCN(CC)c1ccc2nc3c4ccc(OCCCC(=O)O)cc4c(=O)c(Br)c-3oc2c1` had a solubility of more than 100 µM. Still for that read-out and setting: next, `CCN(CC)c1ccc2nc3c4ccc(OCCCC(=O)O)cc4c(=O)cc-3oc2c1`: more than 100 µM. As a reminder, the EC50 is the concentration at which the effect is half-maximal. Low values mean an effect from little substance, high ones a need for much substance. The compound `CCN(CC)c1ccc2nc3c4cc(OCCCC(=O)O)ccc4c(=O)cc-3oc2c1` yielded a solubility in data set [1] of more than 100 µM. The same compound returned an EC50 on Albumin of 1500 nM.

(Values after ChEMBL document CHEMBL1143986, “Probing lipid- and drug-binding domains with fluorescent dyes” (Bioorg Med Chem, 2008).)
